From patent US4578395A, “Certain aralkylaminoalkyl esters of 1,4 dihydropyridines as antihypertensive” (Teijin Limited, priority 1983, dated 1986)
Counter-ions that a name gives are not always drawn.

What was measured:
[1] = test system: conscious rats; assay: Antihypertensive activity by oral administration in conscious rats; type: in vivo, Male Wistar rats; conditions: 10 mg/kg oral
Protocol: When one hour or more passed after the rats were aroused, they were administered the test compound orally.
The blood pressure in the femoral artery was recorder and changes in the mean blood pressure were obtained from the following equation. [formula]

[2] = test system: SHR (Spontaneously Hypertensive Rats); assay: Antihypertensive activity in SHR; type: in vivo, Male SHR (Spontaneously Hypertensive Rats); conditions: no anesthesia
Protocol: Male SHR (14 to 16 weeks old) fasted for more than 16 hours were used. […] When one hour or more passed after the rats woke up out of the ether, they were administered the test compound orally. The blood pressure was measured with the pressure transducer via the catheter inserted into the femoral artery.
The test compound was dissolved in a small quantity of ethanol and diluted with water to be adjusted for administration.
Changes in the mean blood pressure were obtained from the equation mentioned below. The Basic and Clinical Study, vol. 14, p. 4495 (1980) is a useful literature to be referred to for making this kind of experiment. [formula]

[3] = test system: mean blood pressure; assay: Action on mean blood pressure in anesthetized dog; type: in vivo, male beagle dog; conditions: 10 μg/kg i.v.
Protocol: (§1) A male beagle dog weighing about 10 kg was anesthetized with sodium pentobarbital (35 mg/kg i.v.). The test compound was dissolved in a small quantity of ethanol, diluted with an isotonic sodium chloride solution, and was injected into the right femoral vein.
The mean blood pressure (MBP) was measured with the pressure transwer via the cannula inserted into the right femoral artery of the male beagle dog. The changes in the blood pressure after the administration of the test compound are shown in percentages in Table 5.

[4] = test system: myocardium; assay: Action on myocardium (Max dLVP/dt) in anesthetized dog; type: in vivo, male beagle dog; conditions: 10 μg/kg i.v.
Protocol: as §1
The left ventricular pressure (LVP) was measured with the pressure transducer via the cannula which was inserted from the left common carotid artery into the left ventricle and the recorded pressure was differentiated to calculate the max (dLVP/db), thus measuring the pharmacological action of the test compound on the myocardium. […] The Basic and Clinical Study, vol. 14, 4477 (1980) is a useful literature to be consulted with for making this kind of experiment. It is apparent from Table 6 that the compound of this invention has less exciting action on the myocardium than nicardipine.

[5] = test system: cerebral blood vessels (common carotid artery); assay: Action on cerebral blood vessels (carotic blood flow) in anesthetized dog; type: in vivo, male beagle dog; conditions: 3 μg/kg i.v.
Protocol: as §1
(§2) The carotic blood flow (CBF) and the femoral blood flow (FBF) were measured with the electromagnetic blood flowmeter (MFV-1200 made by Japan Photoelectric Co., Ltd.) via probe for measuring the blood flow volume set in the right common carotid artery and the left femoral artery of the male beagle dog respectively.

[6] = test system: Ca^++ contraction; assay: Activity of calcium ion blocking action (thoracic aorta strips); design: species or system male wister rat
Protocol: Spillay cut strips of thoracic arota were obtained from male wister rat and mounted in K-depalarized solution. 30-40 min. after treatment of compound (140) hydrochloride various concentration of Ca^++ were applied and concentration-response curve of calcium ion (Ca^++) was obtained.

[7] = test system: platelet aggregation; assay: In vitro inhibitory activity of platelet aggregation; type: cell-based, male Hartley guinea pigs; conditions: AA 75 μM; for inhibition at 100 µM: Cavia porcellus, Platelet, Conc. 100 μM
Protocol: The in vitro platelet aggregation inhibiting activities of the compounds of the invention were examined by using guinea pigs. Blood was withdrawn by cardiac puncture from male Hartley guinea pigs weighing […]. A mixture of a 3.8% trisodium citrate solution and the blood in a ratio of 1:9 was centrifuged at a speed of 800 rpm for 10 minutes. The upper layer was separated as platelet-rich plasma (PRP). The lower layer was further centrifuged at a separated as platelet-poor plasma (PPP). The number of platelets was adjusted to 5×10^5 /μl to 6×10^5 /μl by filuting the PRP with PPP. 25 microliters of the test compounds prepared as shown below was added in an amount of 25 microliters of PRP after the adjustment, and the mixture was pre-incubated at 37° C. for 2 minutes, and then 75 μM (final) of AA was added. By using an aggregometer (37° C., 1,100 rpm), changes in transmission were recorded.
The test compound was dissolved in ethanol to a concentration of 10 mg/ml. When its activity was measured, it was used after being diluted with phosphate buffer (pH 7.4). Furthermore, after dilution with the buffer, the test compound was left to stand at 0° C. for 4 hours, and the activity of the test compound was similarly measured.
The rate of inhibition of platelet aggregation was determined from the following equation. [formula]

[8] = test system: anesthetized rats; assay: Hypotensive activity by intravenous administration in anesthetized rats (Example 23); type: in vivo, Male Wistar rats
Protocol: Male Wistar rats weighing about 250 g were used. They were anesthetized with urethane (500 mg/kg) and α-chloralose (100 mg/kg) intraperitoneal injection.
The test compound was dissolved in a small quantity of ethanol and the solution, which was then diluted with physiological saline to have a final concentration of ethanol kept at 5% or lower, was intravenously injected through a catheter inserted into the femoral vein.
The blood pressure was recorded with the pressure transducer via the catheter inserted into the common carotid artery of the rats.
Hypotensive activity of the test compound was indicated by the dose (ED20 μ/kg) required for decreasing the mean blood pressure by 20% as compared with the mean blood pressure before the administration.
To determine the duration of the hypotensive action of the test compound, half-life of hypotensive action T^1 /2) was measured.

[9] = test system: peripheral blood vessels (femoral artery); assay: Action on peripheral blood vessels (femoral blood flow) in anesthetized dog; type: in vivo, male beagle dog; conditions: 3 μg/kg i.v.
Protocol: as §1, §2

[10] = Light stability in methanol solution; type: physicochemical; conditions: light, read-out: Remaining percentage
Protocol: 1 mg of compound (156) hydrochloride was dissolved in 100 ml of methanol. The solution was placed in a transparent glass test tube, and after the test tube was tightly stoppered, it was allowed to stand by the window of the laboratory. Part of the solution was taken at regular intervals and subjected to high performance liquid chromatograph to determined the remaining quantity of compound (156) hydrochloride contained in the solution. The same experiment was conducted with nicardipine hydrochloride as the control.

COC(=O)C1=C(C)NC(C)=C(C(=O)OCC(C)(C)CN(C)Cc2ccccc2)C1c1cc([N+](=O)[O-])ccc1F (centres unmarked) [(140) hydrochloride, 3-(N-Benzyl-N-methylamino)-2,2-dimethylpropyl methyl 2,6-dimethyl-4-(2-fluoro-5-nitrophenyl)-1,4-dihydropyridine-3,5-dicarboxylate]
Changes in mean blood pressure ([1]; after 30 min): -36.7 mmHg
Changes in mean blood pressure ([1]; after 60 min): -35.4 mmHg
Changes in mean blood pressure ([1]; after 90 min): -36.3 mmHg
Changes in mean blood pressure ([1]; after 2 hr): -36.2 mmHg
Changes in mean blood pressure ([1]; after 3 hr): -33.8 mmHg
Changes in mean blood pressure ([1]; after 5 hr): -32.6 mmHg
Changes in mean blood pressure ([1]; after 7 hr): -31.7 mmHg
Changes in MBP ([2]; 3 mg/kg oral, 30 min.): -68 ± 2 mmHg
Changes in MBP ([2]; 3 mg/kg oral, 60 min.): -69 ± 4 mmHg
Changes in MBP ([2]; 3 mg/kg oral, 90 min.): -65 ± 2 mmHg
Changes in MBP ([2]; 3 mg/kg oral, 2 hr.): -65 ± 2 mmHg
Changes in MBP ([2]; 3 mg/kg oral, 3 hr.): -65 ± 2 mmHg
Changes in MBP ([2]; 3 mg/kg oral, 5 hr.): -55 mmHg
Changes in MBP ([2]; 3 mg/kg oral, 7 hr.): -39 ± 5 mmHg
Changes in MBP ([3]; 0.5 min.): -6 ± 1%
Changes in MBP ([3]; 1 min.): -10 ± 1%
Changes in MBP ([3]; 2 min.): -15 ± 1%
Changes in MBP ([3]; 5 min.): -20 ± 2%
Changes in MBP ([3]; 10 min.): -23 ± 2%
Changes in MBP ([3]; 15 min.): -28 ± 3%
Changes in Max dLVP/dt ([4]; 0.5 min.): 0 ± 2%
Changes in Max dLVP/dt ([4]; 1 min.): +2 ± 2%
Changes in Max dLVP/dt ([4]; 2 min.): +2 ± 3%
Changes in Max dLVP/dt ([4]; 5 min.): -6 ± 3%
Changes in Max dLVP/dt ([4]; 10 min.): +6 ± 4%
Changes in Max dLVP/dt ([4]; 15 min.): +4 ± 4%
Changes in CBF ([5]; 0.5 min.): +7%
Changes in CBF ([5]; 1 min.): +14%
Changes in CBF ([5]; 2 min.): +17%
Changes in CBF ([5]; 5 min.): +22%
Changes in CBF ([5]; 10 min.): +22%
IC50 ([6]; 30-40 min after treatment, K-depolarized solution, read-out: 50% inhibited concentration to Ca^++ contraction): 0.1 nM
inhibition at 100 µM [7]: -1.1 ± 1.4%

COC(=O)C1=C(C)NC(C)=C(C(=O)OCCN(C)Cc2ccccc2)C1c1cccc([N+](=O)[O-])c1 (stereo not drawn) [Nicardipine hydrochloride, 4-(3-nitrophenyl)-2,6-dimethyl-1,4-dihydropyridine-3,5-dicarboxylic acid-3-methyl ester-5-β-(N-benzyl-N-methylamino) ethyl hydrochloride, reference compound]
ED20 ([8]; Rattus norvegicus, iv, anesthetized Wistar rats about 250 g, read-out: ED20 (dose decreasing mean blood pressure by 20%)): 0.021 mg/kg
Duration T1/2 (half-life of hypotensive action) ([8]; i.v., dose 30): 4.2 min
Changes in mean blood pressure ([1]; after 30 min): -26.7 mmHg
Changes in mean blood pressure ([1]; after 60 min): -19.2 mmHg
Changes in mean blood pressure ([1]; after 90 min): -18.3 mmHg
Changes in mean blood pressure ([1]; after 2 hr): -16.3 mmHg
Changes in mean blood pressure ([1]; after 3 hr): -7.1 mmHg
Changes in mean blood pressure ([1]; after 5 hr): +1.3 mmHg
Changes in mean blood pressure ([1]; after 7 hr): +2.5 mmHg
Changes in MBP ([2]; 10 mg/kg oral, 30 min.): -28 ± 13 mmHg
Changes in MBP ([2]; 10 mg/kg oral, 60 min.): -29 ± 11 mmHg
Changes in MBP ([2]; 10 mg/kg oral, 90 min.): -17 ± 14 mmHg
Changes in MBP ([2]; 10 mg/kg oral, 2 hr.): -18 ± 9 mmHg
Changes in MBP ([2]; 10 mg/kg oral, 3 hr.): -12 ± 8 mmHg
Changes in MBP ([2]; 10 mg/kg oral, 5 hr.): -10 mmHg
Changes in MBP ([2]; 10 mg/kg oral, 7 hr.): -11 ± 6 mmHg
time to peak of antihypertensive action after the administration [3]: one
Changes in MBP ([3]; 0.5 min.): -17 ± 2%
Changes in MBP ([3]; 1 min.): -18 ± 3%
Changes in MBP ([3]; 2 min.): -16 ± 3%
Changes in MBP ([3]; 5 min.): -11 ± 4%
Changes in MBP ([3]; 10 min.): -7 ± 4%
Changes in MBP ([3]; 15 min.): -8 ± 5%
Changes in Max dLVP/dt ([4]; 0.5 min.): +5 ± 3%
Changes in Max dLVP/dt ([4]; 1 min.): +10 ± 7%
Changes in Max dLVP/dt ([4]; 2 min.): +38 ± 23%
Changes in Max dLVP/dt ([4]; 5 min.): +42 ± 24%
Changes in Max dLVP/dt ([4]; 10 min.): +31 ± 18%
Changes in Max dLVP/dt ([4]; 15 min.): +6 ± 11%
time to peak of CBF after the administration [5]: one
Changes in CBF ([5]; 0.5 min.): +7%
Changes in CBF ([5]; 1 min.): +14%
Changes in CBF ([5]; 2 min.): +13%
Changes in CBF ([5]; 5 min.): +5%
Changes in CBF ([5]; 10 min.): +3%
time to peak of FBF after the administration [9]: 2 min
Changes in FBF ([9]; 0.5 min.): +7 ± 7%
Changes in FBF ([9]; 1 min.): +20 ± 9%
Changes in FBF ([9]; 2 min.): +24 ± 0%
Changes in FBF ([9]; 5 min.): +17 ± 10%
Changes in FBF ([9]; 10 min.): +6 ± 0%
50% inhibited concentration to Ca^++ contraction relative to compound (140) hydrochloride ([6]; as much as that of compound (140) hydrochloride): twice
inhibitory activity of platelet aggregation ([7]; 100 μM): has inhibitory activity of platelet aggregation
inhibition at 100 µM [7]: 35.2 ± 9.4%
remaining at 2 h ([10]; 2 hr.): 98%
remaining at 4 h ([10]; 4 hr.): 87%
remaining at 6 h ([10]; 6 hr.): 78%
